Patent US20030035843A1, “Method for processing and preserving collagen-based tissues for transplantation” (LifeCell Corporation, a Delaware corporation, priority 1990, published 2003)

Assays:
human cadaver skin = experiment: Removal of epidermis/keratinocytes from human cadaver skin by enzyme or salt incubation
Excerpt: Alternatively, enzymes may be used to accomplish decellularization, including but not limited to dispase II, trypsin, and thermolysin. These enzymes react with different components of collagen and intercellular connections in achieving their effects. Dispase II attacks Type IV collagen, which is a component of the lamina densa and anchoring fibrils of the basement membrane. Thermolysin attacks the bulbous phemphigoid antigen in the hemidesmosome of the basal layer of keratinocytes. Trypsin attacks the desmosome complex between cells. Due to the proteolytic nature of these enzymes, care must be taken that cellular removal occurs without significant damage to the extracellular matrix, including the basement membrane complex. This is a function of concentration, time and temperature. If used for too long a time or at too high a concentration, dispase II for example can completely remove the basement membrane complex from the dermis.

porcine skin = experiment: Separation of epidermis and dermis of porcine skin by salt incubation; conditions: 1 molar, 48 hours

| removal of keratinocytes (human cadaver skin; 200 ug/ml, 30 minutes, 4° C., human cadaver skin) | Molecule | separation of the epidermis and dermis (human cadaver skin; 1 molar, 16 hours, human skin) | separation of the epidermis and dermis (porcine skin) |
| --- | --- | --- | --- |
| – | [Cl-].[Na+] [sodium chloride] | clean separation of the epidermis and dermis without damage to the basement membrane complex | clean separation of the epidermis and dermis without damage to the basement membrane complex |
| essentially remove all keratinocytes | Thermolysin: enzyme used for decellularization; attacks the bulbous phemphigoid antigen in the hemidesmosome (protein, UniProt P00800 233-548, looked up) Thermolysin: ITGTSTVGVGRGVLGDQKNINTTYSTYYYLQDNTRGNGIFTYDAKYRTTLPGSLWADADNQFFASYDAPAVDAHYYAGVTYDYYKNVHNRLSYDGNNAAIRSSVHYSQGYNNAFWNGSQMVYGDGDGQTFIPLSGGIDVVAHELTHAVTDYTAGLIYQNESGAINEAISDIFGTLVEFYANKNPDWEIGEDVYTPGISGDSLRSMSDPAKYGDPDHYSKRYTGTQDNGGVHINSGIINKAAYLISQGGTHYGVSVVGIGRDKLGKIFYRALTQYLTPTSNFSQLRAAAVQSATDLYGSTSQEVASVKQAFDAVGVK | – | – |
